According to US9833497B2, “Human originated EGF domain proteins and use of the same” (CHENGDU SOURCEBIO LIMITED-LIABILITY COMPANY, priority 2013, dated 2017):

Experiments:
Assay type in all cases: cell-based
E. coli DH5α = assay: Antibacterial activity: MIC and growth curve against E. coli DH5α in 96-well plate; settings: minimal inhibitory concentration against E. coli DH5α; 96-well plate, 5×10^5 CFU/mL, 37° C., judged after 8 h
In short: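 Log-phase DH5α (OD600 about 0.5, 37° C, 185 rpm in LB) was pelleted, resuspended in fresh LB and seeded at 5×10^5 CFU/mL with recombinant protein at 50, 25 and 12.5 μg/mL (two-fold series), in triplicate. Plates were shaken at 175 rpm, 37° C, and OD600 was read every 30 min. MIC was the lowest concentration with no growth.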

E. coli BL21 = assay: MIC against Gram-negative bacteria: E. coli BL21; settings: 5×10^5 CFU/mL
In short: (§1)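 Bacteria grown in LB at 37° C to McFarland 0.5, resuspended and seeded at 5×10^5 CFU/mL in 96-well plates. Purified human EGF-domain proteins two-fold serially diluted, triplicate wells; cultured at 37° C, shaking 175 rpm. MIC = lowest protein concentration with no growth.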

Pseudomonas aeruginosa = assay: MIC against Gram-negative bacteria: Pseudomonas aeruginosa; settings: 5×10^5 CFU/mL
In short: as §1

Klebsiella pneumonia = assay: MIC against Gram-negative bacteria: Klebsiella pneumonia; settings: 5×10^5 CFU/mL
In short: as §1

Enterobacter cloacae = assay: MIC against Gram-negative bacteria: Enterobacter cloacae; settings: 5×10^5 CFU/mL
In short: as §1

Aeromonas hydrophila = assay: MIC against Gram-negative bacteria: Aeromonas hydrophila; settings: 5×10^5 CFU/mL
In short: as §1

Citrobacter diversus = assay: MIC against Gram-negative bacteria: Citrobacter diversus; settings: 5×10^5 CFU/mL
In short: as §1

Moraxella catarrhalis = assay: MIC against Gram-negative bacteria: Moraxella catarrhalis; settings: 5×10^5 CFU/mL
In short: as §1

Proteus mirabilis = assay: MIC against Gram-negative bacteria: Proteus mirabilis; settings: 5×10^5 CFU/mL
In short: as §1

Proteus vulgaris = assay: MIC against Gram-negative bacteria: Proteus vulgaris; settings: 5×10^5 CFU/mL
In short: as §1

Serratia marcescens = assay: MIC against Gram-negative bacteria: Serratia marcescens; settings: 5×10^5 CFU/mL
In short: as §1

[1] = 10 h cultivation at 37° C., two-fold serial dilution
[2] = E. coli BL21, 10 h cultivation at 37° C.

Q: For “PRT1111 (SEDMCSPDPCFNGGTCLVTWNDFHCTCPANFTGPTCA; listed as Homo sapiens)”, which MIC (E. coli DH5α) is on record?
A: Its MIC is 12.5 µg/mL.

Q: And the “MIC E. coli BL21” value (E. coli BL21; [1])?
A: The value was 50 µg/mL.

Q: And the “MIC P. aeruginosa” value (Pseudomonas aeruginosa; [1])?
A: Its value is 12.5 µg/mL.

Q: And the “MIC K. pneumonia” value (Klebsiella pneumonia; [1])?
A: The value was 50 µg/mL.

Q: And the “MIC E. cloacae” value (Enterobacter cloacae; [1])?
A: Its value is 25 µg/mL.

Q: What about the “MIC A. hydrophila” value (Aeromonas hydrophila; [1]) of the same substance?
A: The value was 25 µg/mL.

Q: And the “MIC C. diversus” value (Citrobacter diversus; [1])?
A: Its value is 12.5 µg/mL.

Q: What about the “MIC M. catarrhalis” value (Moraxella catarrhalis; [1]) of the same substance?
A: Its value is 25 µg/mL.

Q: And the “MIC P. mirabilis” value (Proteus mirabilis; [1])?
A: The value was 50 µg/mL.

Q: What about the “MIC P. vulgaris” value (Proteus vulgaris; [1]) of the same substance?
A: The value was 25 µg/mL.

Q: What about the “MIC S. marcescens” value (Serratia marcescens; [1]) of the same substance?
A: The value was 12.5 µg/mL.

Q: What does the source list for “PRT800 (GRVCQCQNGASCDHISGKCTCRTGFTGQHCE; listed as Homo sapiens)”?
A: MIC (E. coli DH5α): 25 µg/mL; MIC (μg/mL) E. coli BL21 (E. coli BL21; [2]): 50 µg/mL; MIC (μg/mL) P. aeruginosa (Pseudomonas aeruginosa; 10 h cultivation at 37° C.): 25 µg/mL; MIC (μg/mL) K. pneumonia (Klebsiella pneumonia; 10 h cultivation at 37° C.): 12.5 µg/mL; MIC (μg/mL) E. cloacae (Enterobacter cloacae; 10 h cultivation at 37° C.): 50 µg/mL; MIC (μg/mL) A. hydrophila (Aeromonas hydrophila; 10 h cultivation at 37° C.): 12.5 µg/mL; MIC (μg/mL) C. diversus (Citrobacter diversus; 10 h cultivation at 37° C.): 50 µg/mL; MIC (μg/mL) M. catarrhalis (Moraxella catarrhalis; 10 h cultivation at 37° C.): 12.5 µg/mL; MIC (μg/mL) P. mirabilis (Proteus mirabilis; 10 h cultivation at 37° C.): 12.5 µg/mL; MIC (μg/mL) P. vulgaris (Proteus vulgaris; 10 h cultivation at 37° C.): 50 µg/mL; MIC (μg/mL) S. marcescens (Serratia marcescens; 10 h cultivation at 37° C.): 25 µg/mL

Q: For “PRT167 (TPNPCENDGVCTDIGGDFRCRCPAGFIDKTC; listed as Homo sapiens)”, which MIC (E. coli DH5α) is on record?
A: The MIC was 12.5 µg/mL.

Q: What about the “MIC (μg/mL) E. coli BL21” value (E. coli BL21; [2]) of the same substance?
A: The value was 50 µg/mL.

Q: What about the “MIC (μg/mL) P. aeruginosa” value (Pseudomonas aeruginosa; 10 h cultivation at 37° C.) of the same substance?
A: The value was 12.5 µg/mL.

Q: And the “MIC (μg/mL) K. pneumonia” value (Klebsiella pneumonia; 10 h cultivation at 37° C.)?
A: The value was 50 µg/mL.

Q: And the “MIC (μg/mL) E. cloacae” value (Enterobacter cloacae; 10 h cultivation at 37° C.)?
A: The value was 12.5 µg/mL.

Q: And the “MIC (μg/mL) A. hydrophila” value (Aeromonas hydrophila; 10 h cultivation at 37° C.)?
A: Its value is 12.5 µg/mL.

Q: And the “MIC (μg/mL) C. diversus” value (Citrobacter diversus; 10 h cultivation at 37° C.)?
A: The value was 25 µg/mL.

Q: What about the “MIC (μg/mL) M. catarrhalis” value (Moraxella catarrhalis; 10 h cultivation at 37° C.) of the same substance?
A: The value was 12.5 µg/mL.

Q: And the “MIC (μg/mL) P. mirabilis” value (Proteus mirabilis; 10 h cultivation at 37° C.)?
A: The value was 25 µg/mL.

Q: And the “MIC (μg/mL) P. vulgaris” value (Proteus vulgaris; 10 h cultivation at 37° C.)?
A: The value was 25 µg/mL.

Q: And the “MIC (μg/mL) S. marcescens” value (Serratia marcescens; 10 h cultivation at 37° C.)?
A: Its value is 12.5 µg/mL.

Q: For “PRT615 (CDCHALGSTNGQCDIRTGQCECQPGITGQHCERCEVNHFGFGPEGCKP; listed as Homo sapiens)”, which MIC (E. coli DH5α) is on record?
A: Its MIC is 12.5 µg/mL.

Q: What about the “MIC E. coli BL21” value (E. coli BL21; 96-well plate, 37° C., 10 h) of the same substance?
A: Its value is 25 µg/mL.

Q: What about the “MIC P. aeruginosa” value (Pseudomonas aeruginosa; 96-well plate, 37° C., 10 h) of the same substance?
A: The value was 12.5 µg/mL.

Q: What about the “MIC K. pneumonia” value (Klebsiella pneumonia; 96-well plate, 37° C., 10 h) of the same substance?
A: The value was 25 µg/mL.

Q: What about the “MIC E. cloacae” value (Enterobacter cloacae; 96-well plate, 37° C., 10 h) of the same substance?
A: Its value is 12.5 µg/mL.

Q: And the “MIC A. hydrophila” value (Aeromonas hydrophila; 96-well plate, 37° C., 10 h)?
A: The value was 25 µg/mL.

Q: And the “MIC C. diversus” value (Citrobacter diversus; 96-well plate, 37° C., 10 h)?
A: The value was 50 µg/mL.

Q: And the “MIC M. catarrhalis” value (Moraxella catarrhalis; 96-well plate, 37° C., 10 h)?
A: Its value is 25 µg/mL.

Q: And the “MIC P. mirabilis” value (Proteus mirabilis; 96-well plate, 37° C., 10 h)?
A: The value was 12.5 µg/mL.

Q: And the “MIC P. vulgaris” value (Proteus vulgaris; 96-well plate, 37° C., 10 h)?
A: Its value is 25 µg/mL.

Q: What about the “MIC S. marcescens” value (Serratia marcescens; 96-well plate, 37° C., 10 h) of the same substance?
A: The value was 50 µg/mL.

Q: How did the MIC (E. coli DH5α) turn out when “PRT1134 (NVDDCLMRPCANGATCLDGINRFSCLCPEGFAGRFCT; listed as Homo sapiens)” was run?
A: The MIC was 12.5 µg/mL.

Q: What about the “MIC E. coli BL21” value (E. coli BL21; [1]) of the same substance?
A: The value was 25 µg/mL.

Q: What about the “MIC P. aeruginosa” value (Pseudomonas aeruginosa; [1]) of the same substance?
A: The value was 12.5 µg/mL.

Q: And the “MIC K. pneumonia” value (Klebsiella pneumonia; [1])?
A: The value was 25 µg/mL.

Q: What about the “MIC E. cloacae” value (Enterobacter cloacae; [1]) of the same substance?
A: Its value is 12.5 µg/mL.

Q: And the “MIC A. hydrophila” value (Aeromonas hydrophila; [1])?
A: Its value is 12.5 µg/mL.

Q: And the “MIC C. diversus” value (Citrobacter diversus; [1])?
A: Its value is 12.5 µg/mL.

Q: And the “MIC M. catarrhalis” value (Moraxella catarrhalis; [1])?
A: The value was 12.5 µg/mL.

Q: What about the “MIC P. mirabilis” value (Proteus mirabilis; [1]) of the same substance?
A: The value was 12.5 µg/mL.

Q: And the “MIC P. vulgaris” value (Proteus vulgaris; [1])?
A: Its value is 50 µg/mL.

Q: What about the “MIC S. marcescens” value (Serratia marcescens; [1]) of the same substance?
A: The value was 12.5 µg/mL.

Q: “PRT1397 (PMNQCIDPSCGGHGSCIDGNCVCSAGYKGEHCE; listed as Homo sapiens)” was tested. Which MIC (E. coli DH5α) did it give?
A: The MIC was 50 µg/mL.

Q: And the “MIC against E. coli BL21” value (E. coli BL21; [2])?
A: Its value is 25 µg/mL.

Q: What about the “MIC against P. aeruginosa” value (Pseudomonas aeruginosa; Pseudomonas aeruginosa, 10 h cultivation at 37° C.) of the same substance?
A: Its value is 12.5 µg/mL.

Q: And the “MIC against K. pneumonia” value (Klebsiella pneumonia; Klebsiella pneumonia, 10 h cultivation at 37° C.)?
A: Its value is 50 µg/mL.

Q: And the “MIC against E. cloacae” value (Enterobacter cloacae; Enterobacter cloacae, 10 h cultivation at 37° C.)?
A: The value was 12.5 µg/mL.

Q: And the “MIC against A. hydrophila” value (Aeromonas hydrophila; Aeromonas hydrophila, 10 h cultivation at 37° C.)?
A: Its value is 50 µg/mL.

Q: What about the “MIC against C. diversus” value (Citrobacter diversus; Citrobacter diversus, 10 h cultivation at 37° C.) of the same substance?
A: Its value is 25 µg/mL.

Q: What about the “MIC against M. catarrhalis” value (Moraxella catarrhalis; Moraxella catarrhalis, 10 h cultivation at 37° C.) of the same substance?
A: The value was 12.5 µg/mL.

Q: What about the “MIC against P. mirabilis” value (Proteus mirabilis; Proteus mirabilis, 10 h cultivation at 37° C.) of the same substance?
A: Its value is 25 µg/mL.

Q: And the “MIC against P. vulgaris” value (Proteus vulgaris; Proteus vulgaris, 10 h cultivation at 37° C.)?
A: Its value is 50 µg/mL.

Q: And the “MIC against S. marcescens” value (Serratia marcescens; Serratia marcescens, 10 h cultivation at 37° C.)?
A: The value was 25 µg/mL.

Q: Which MIC (E. coli DH5α) does the source give for “PRT170 (CTHHKPCKNGATCTNTGQGSYTCSCRPGYTGATC; listed as Homo sapiens)” here?
A: Its MIC is 50 µg/mL.

Q: What about the “MIC (μg/mL) E. coli BL21” value (E. coli BL21; [2]) of the same substance?
A: Its value is 25 µg/mL.

Q: And the “MIC (μg/mL) P. aeruginosa” value (Pseudomonas aeruginosa; 10 h cultivation at 37° C.)?
A: The value was 12.5 µg/mL.

Q: And the “MIC (μg/mL) K. pneumonia” value (Klebsiella pneumonia; 10 h cultivation at 37° C.)?
A: The value was 25 µg/mL.

Q: What about the “MIC (μg/mL) E. cloacae” value (Enterobacter cloacae; 10 h cultivation at 37° C.) of the same substance?
A: Its value is 50 µg/mL.

Q: And the “MIC (μg/mL) A. hydrophila” value (Aeromonas hydrophila; 10 h cultivation at 37° C.)?
A: The value was 25 µg/mL.

Q: And the “MIC (μg/mL) C. diversus” value (Citrobacter diversus; 10 h cultivation at 37° C.)?
A: The value was 12.5 µg/mL.

Q: What about the “MIC (μg/mL) M. catarrhalis” value (Moraxella catarrhalis; 10 h cultivation at 37° C.) of the same substance?
A: Its value is 25 µg/mL.

Q: And the “MIC (μg/mL) P. mirabilis” value (Proteus mirabilis; 10 h cultivation at 37° C.)?
A: The value was 50 µg/mL.

Q: And the “MIC (μg/mL) P. vulgaris” value (Proteus vulgaris; 10 h cultivation at 37° C.)?
A: The value was 25 µg/mL.

Q: And the “MIC (μg/mL) S. marcescens” value (Serratia marcescens; 10 h cultivation at 37° C.)?
A: The value was 12.5 µg/mL.
